Source: ChEMBL document CHEMBL4765411, “Discovery of 2-(2-aminobenzo[d]thiazol-6-yl) benzo[d]oxazol-5-amine derivatives that regulated HPV relevant cellular pathway and prevented cervical cancer from abnormal proliferation” (Eur J Med Chem, 2020)
Active and inactive are the calls of the source. The rule behind the calls is not given here.

What was measured:
[1] = target: T1, Protein E7 (human papillomavirus 18) (UniProt P06788); experiment: Inhibition of viral protein E7 in HPV18 infected in human HeLa cells assessed as reduction in E2F-1 protein […] after 24 hrs by Western blot analysis; assay type: cell-based; conditions: dose 0.5-10 µM
T1 sequence (whole entry): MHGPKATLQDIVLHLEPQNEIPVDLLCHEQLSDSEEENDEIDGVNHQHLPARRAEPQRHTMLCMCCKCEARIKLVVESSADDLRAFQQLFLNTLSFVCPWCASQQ

HeLa [2] = experiment: Induction of apoptosis in human HeLa cells assessed as early apoptotic cells at 1 uM after 24 hrs by Annexin V FITC/propidium iodide staining based flow cytometric analysis (reference value: 0.6%); assay type: functional
HeLa [3] = experiment: Induction of apoptosis in human HeLa cells assessed as late apoptotic cells at 1 uM after 24 hrs by Annexin V FITC/propidium iodide staining based flow cytometric analysis (reference value: 0.41%); assay type: functional
MCF7 = experiment: Antitumour activity against human MCF7 cells xenografted in BALB/c nude mouse assessed as reduction in tumour growth at 50 mg/kg, ig administered for alternative days; assay type: functional, organism-based
[4] = Toxicity in BALB/c nude mouse xenografted with human HeLa cells assessed as effect on body weight at 50 mg/kg, ig administered for alternative days; assay type: organism-based; conditions: in vivo, po
HeLa [5] = experiment: Induction of apoptosis in human HeLa cells assessed as necrotic cells at 1 uM after 24 hrs by Annexin V FITC/propidium iodide staining based flow cytometric analysis (reference value: 1.02%); assay type: functional
[6] = Toxicity in BALB/c nude mouse xenografted with human A375 cells assessed as effect on body weight at 50 mg/kg, ig administered for alternative days; assay type: organism-based; conditions: in vivo, po
[7] = Toxicity in BALB/c nude mouse xenografted with human SKOV-3 cells assessed as effect on body weight at 50 mg/kg, ig administered for alternative days; assay type: organism-based; conditions: in vivo, po
[8] = target: T1, Protein E7 (human papillomavirus 18); experiment: Inhibition of viral protein E7 in HPV18 infected in human HeLa cells assessed as reduction in DNMT1 protein […] after 24 hrs by Western blot analysis; assay type: cell-based; conditions: dose 0.5-10 µM
SK-OV-3 = experiment: Antitumour activity against human SKOV-3 cells xenografted in BALB/c nude mouse assessed as reduction in tumour growth at 50 mg/kg, ig administered for alternative days; assay type: functional, organism-based
A-431 = experiment: Antitumour activity against human A431 cells xenografted in BALB/c nude mouse assessed as reduction in tumour growth at 50 mg/kg, ig administered for alternative days; assay type: functional, organism-based
HeLa [9] = experiment: Antiproliferative activity against human HeLa cells assessed as growth inhibition at 1 uM viability after 72 hrs by SRB assay relative to control; assay type: functional; conditions: read-out: GI
HeLa [10] = experiment: Down regulation of viral protein E7 in HPV18 infected in human HeLa cells at 5 uM after 24 hrs in presence of MG132 by Western blot analysis; assay type: functional, cell-based
C-33-A = experiment: Antiproliferative activity against human C-33-A cells assessed as reduction in cell viability after 72 hrs by SRB assay; assay type: functional, cell-based
[11] = target: T1, Protein E7 (human papillomavirus 18); experiment: Inhibition of viral protein E7 in HPV18 infected in human HeLa cells assessed as reduction in phosphorylation of Rb at S608 residue after 24 hrs by Western blot analysis; assay type: cell-based; conditions: dose 0.5-10 µM
HeLa [12] = experiment: Induction of cell cycle arrest in human HeLa cells assessed as decrease in accumulation in S phase at 1 uM after 24 hrs by RNAse/propidium iodide staining based flow cytometric analysis; assay type: functional
HeLa [13] = experiment: Antiproliferative activity against human HeLa cells assessed as reduction in cell viability after 72 hrs by SRB assay; assay type: functional, cell-based
[14] = Antiproliferative activity against human C4-1 cells assessed as reduction in cell viability after 72 hrs by SRB assay; assay type: functional, cell-based; conditions: C4-1, 72 h
HeLa [15] = experiment: Antitumour activity against human HeLa cells xenografted in BALB/c nude mouse assessed as reduction in tumour growth at 50 mg/kg, ig administered for alternative days; assay type: functional, organism-based
human papillomavirus 18 [16] = experiment: Down regulation of viral protein E7 in HPV18 infected in human HeLa cells after 24 hrs by Western blot analysis; assay type: functional, cell-based; conditions: dose 0.5-10 µM
[17] = Toxicity in BALB/c nude mouse xenografted with human MCF7 cells assessed as effect on body weight at 50 mg/kg, ig administered for alternative days; assay type: organism-based; conditions: in vivo, po
[18] = target: T1, Protein E7 (human papillomavirus 18); experiment: Inhibition of viral protein E7 in HPV18 infected in human HeLa cells assessed as reduction in phosphorylation of Rb at S780 residue after 24 hrs by Western blot analysis; assay type: cell-based; conditions: dose 0.5-10 µM
HeLa [19] = experiment: Induction of apoptosis in human HeLa cells assessed as viable cells at 1 uM after 24 hrs by Annexin V FITC/propidium iodide staining based flow cytometric analysis (reference value: 97.97%); assay type: functional; conditions: read-out: Activity
HEK293 = experiment: Cytotoxicity against human HEK293 cells assessed as reduction in cell viability after 72 hrs by SRB assay; assay type: cell-based; conditions: HEK293, 72 h
SiHa = experiment: Antiproliferative activity against human SiHa cells assessed as reduction in cell viability after 72 hrs by SRB assay; assay type: functional, cell-based
A-375 = experiment: Antitumour activity against human A375 cells xenografted in BALB/c nude mouse assessed as reduction in tumour growth at 50 mg/kg, ig administered for alternative days; assay type: functional, organism-based
[20] = Toxicity in BALB/c nude mouse xenografted with human A431 cells assessed as effect on body weight at 50 mg/kg, ig administered for alternative days; assay type: organism-based; conditions: in vivo, po
human papillomavirus 18 [21] = experiment: Down regulation of viral protein E6 in HPV18 infected in human C4-1 cells after 24 hrs by Western blot analysis; assay type: functional, cell-based; conditions: dose 0.5-10 µM
human papillomavirus 18 [22] = experiment: Down regulation of viral protein E6 in HPV18 infected in human HeLa cells after 24 hrs by Western blot analysis; assay type: functional, cell-based; conditions: dose 0.5-10 µM
HeLa [23] = experiment: Antiproliferative activity against human HeLa cells assessed as growth inhibition at 20 uM viability after 72 hrs by SRB assay relative to control; assay type: functional; conditions: read-out: GI
human papillomavirus 18 [24] = experiment: Down regulation of viral protein E7 in HPV18 infected in human C4-1 cells after 24 hrs by Western blot analysis; assay type: functional, cell-based; conditions: dose 0.5-10 µM

Nc1ccc2oc(-c3ccc4nc(N)sc4c3)nc2c1
inhibition [1]: Dose-dependent effect
Activity (HeLa [2]): 8.77%
Activity (HeLa [3]): 3.05%
Activity (MCF7): inactive
Activity [4]: Non-Toxic
Activity (HeLa [5]): 2.33%
Activity [6]: Non-Toxic
Activity [7]: Non-Toxic
inhibition [8]: Dose-dependent effect
Activity (SK-OV-3): inactive
Activity (A-431): inactive
inhibition of growth at 1 µM (HeLa [9]): 81.7%
Activity (HeLa [10]): inactive
IC50 (C-33-A): 11.9 µM
inhibition [11]: Dose-dependent effect
Activity (HeLa [12]): Active
IC50 (HeLa [13]): 0.38 µM
IC50 [14]: 0.44 µM
Activity (HeLa [15]): Active
Activity (human papillomavirus 18 [16]): Dose-dependent effect
Activity [17]: Non-Toxic
inhibition [18]: Dose-dependent effect
viability at 1 µM (HeLa [19]): 85.8%
IC50 (HEK293): > 20 µM
IC50 (SiHa): 11.5 µM
Activity (A-375): inactive
Activity [20]: Non-Toxic
Activity (human papillomavirus 18 [21]): Dose-dependent effect
Activity (human papillomavirus 18 [22]): Dose-dependent effect
inhibition of growth at 20 µM (HeLa [23]): 81.1%
Activity (human papillomavirus 18 [24]): Dose-dependent effect
